Assay: Stabilization/storage of gold nanoparticles by exposure to a phosphino amino acid
Format: physicochemical
Description: In addition to tuning particle size, an important purpose of stabilizers is to prevent agglomeration and/or oxidation of the gold nanoparticles during storage. All of the stabilizers identified above have been discovered to provide beneficial stability for gold nanoparticles produced through methods of the invention. […] Carbohydrates are an additional stabilizer discovered to be useful with practice of methods of the invention. More than one stabilizer may be employed. Any selected stabilizer can be added at any time during the synthesis of the nanoparticles. Preferably, the stabilizer is present in solution prior to introduction of the final reactant (i.e., one or both of gold salt and phosphino amino acid are added to a solution that already contains a stabilizer).
Still additional example methods of the invention are directed to methods for storing and/or stabilizing gold nanoparticles. It has been discovered the use of phosphino amino acids, with TAAC being a preferred example, provide beneficial levels of stability for storing gold nanoparticles. In an example method of the invention, gold nanoparticles (that may have been, for example, produced through a method other than one of the present invention) are exposed to a phosphino amino acid such as TAAC to prevent their agglomeration.

Q: What does the source list for `CC(NCP(CNC(C)C(=O)O)CNC(C)C(=O)O)C(=O)O` (centres unmarked) [TAAC, trimeric alanine phosphine conjugate]?
A: protection of gold nanoparticles from oxidation: help “protect” gold nanoparticles from oxidation; prevention of agglomeration of gold nanoparticles (over periods of 7, 14 and even 30 days): substantially prevent agglomeration
